Experimental findings from ChEMBL document CHEMBL3792294, “Efficient synthesis of new 2,3-dihydrooxazole-spirooxindoles hybrids as antimicrobial agents” (2016) are described below.

Converted amounts (≈) assume the structure as drawn. The source made the active and inactive calls. No cut-off for these calls is given here.

Format in all cases: functional
One assay relates to Bacillus subtilis. The experiment in a line: Antibacterial activity against Bacillus subtilis after 24 hrs by spectrophotometry.
In the next assay the test system is Enterobacter. The experiment in a line: Antibacterial activity against Enterobacter after 24 hrs by spectrophotometry.
In the next assay the test system is Klebsiella pneumoniae. Briefly: Antibacterial activity against Klebsiella pneumoniae after 24 hrs by spectrophotometry.
The subject of another assay is Pyricularia oryzae. The experiment in a line: Antifungal activity against Pyricularia oryzae after 48 hrs by agar diffusion method.
Assay [1] relates to Pseudoperonospora cubensis. Briefly: Antifungal activity against Pseudoperonospora cubensis after 72 hrs by agar diffusion method.
The subject of another assay is Podosphaera fuliginea. The experiment in a line: Antifungal activity against Sphaerotheca fuliginea after 72 hrs by agar diffusion method.
Another assay has as its system Phytophthora infestans. Briefly: Antifungal activity against Phytophthora infestans after 72 hrs by agar diffusion method.

For `O=C(NN1C(c2ccccc2)=C(c2ccccc2)OC12C(=O)Nc1ccccc12)c1ccccc1O` (stereo not given), the values for the MBC in the assay with Bacillus subtilis and against Enterobacter were 100 µg/mL (≈ 210 µM) and 50 µg/mL (≈ 105 µM), respectively. The MIC in the assay on Bacillus subtilis was found to be 70 µg/mL (≈ 147 µM); against Enterobacter, 40 µg/mL (≈ 84.1 µM); in the assay on Pyricularia oryzae, 16 µg/mL (≈ 33.6 µM); in assay [1], 12 µg/mL (≈ 25.2 µM); against Podosphaera fuliginea, 12 µg/mL (≈ 25.2 µM); with Phytophthora infestans, 14 µg/mL (≈ 29.4 µM). Moreover, the MBC result with Klebsiella pneumoniae is “inactive”. Also, in the assay with Klebsiella pneumoniae, the MIC entry was “inactive”.

Turning to `O=C(COc1ccccc1)NN1C(c2ccccc2)=C(c2ccccc2)OC12C(=O)Nc1ccccc12` (stereo not given), the MBC with Bacillus subtilis and against Enterobacter was 100 µg/mL (≈ 204 µM) in each case. Further, the MIC in the assay with Bacillus subtilis was found to be 50 µg/mL (≈ 102 µM); against Enterobacter, 40 µg/mL (≈ 81.7 µM); with Pyricularia oryzae, 15 µg/mL (≈ 30.6 µM); in assay [1] it was 12 µg/mL (≈ 24.5 µM); against Podosphaera fuliginea it was 16 µg/mL (≈ 32.7 µM); against Phytophthora infestans, 14 µg/mL (≈ 28.6 µM). The MBC entry with Klebsiella pneumoniae is “inactive”. The MIC entry in the assay with Klebsiella pneumoniae is “inactive”.

Regarding `O=C(NN1C(c2ccccc2)=C(c2ccccc2)OC12C(=O)Nc1ccccc12)c1ccc([N+](=O)[O-])cc1` (stereo not given), the MBC in the assay with Bacillus subtilis and with Enterobacter was 50 µg/mL (≈ 99.1 µM) in each case. Further, the MIC with Bacillus subtilis was 30 µg/mL (≈ 59.5 µM); against Enterobacter, 30 µg/mL (≈ 59.5 µM); in the assay on Pyricularia oryzae, 16 µg/mL (≈ 31.7 µM); in assay [1] it was 18 µg/mL (≈ 35.7 µM); against Podosphaera fuliginea it was 12 µg/mL (≈ 23.8 µM); in the assay on Phytophthora infestans, 12 µg/mL (≈ 23.8 µM). The MBC entry in the assay with Klebsiella pneumoniae is “inactive”. Also, the MIC result in the assay on Klebsiella pneumoniae is “inactive”.

For `O=C(COc1ccc(Cl)cc1Cl)NN1C(c2ccccc2)=C(c2ccccc2)OC12C(=O)Nc1ccccc12` (stereo not given), the MBC against Bacillus subtilis was 50 µg/mL (≈ 89.5 µM); against Enterobacter it was 100 µg/mL (≈ 179 µM); in the assay with Klebsiella pneumoniae, 50 µg/mL (≈ 89.5 µM). The MIC in the assay with Bacillus subtilis is 25 µg/mL (≈ 44.8 µM); in the assay with Enterobacter it was 40 µg/mL (≈ 71.6 µM); against Klebsiella pneumoniae, 25 µg/mL (≈ 44.8 µM); with Podosphaera fuliginea, 14 µg/mL (≈ 25.1 µM). The MIC entry (in the assay on Pyricularia oryzae; in assay [1]; in the assay on Phytophthora infestans) was “inactive” throughout.

In the case of `COc1ccc(C(=O)NN2C(c3ccccc3)=C(c3ccccc3)OC23C(=O)Nc2ccccc23)cc1` (stereo not given), the MBC was 200 µg/mL (≈ 409 µM) with Bacillus subtilis and 100 µg/mL (≈ 204 µM) with Enterobacter. Further, the minimum inhibitory concentration (MIC) in the assay with Bacillus subtilis turned out to be 100 µg/mL (≈ 204 µM); in the assay on Enterobacter, 50 µg/mL (≈ 102 µM); against Pyricularia oryzae, 12 µg/mL (≈ 24.5 µM); in assay [1], 14 µg/mL (≈ 28.6 µM); against Podosphaera fuliginea it was 8 µg/mL (≈ 16.3 µM); in the assay on Phytophthora infestans, 14 µg/mL (≈ 28.6 µM). In addition, in the assay on Klebsiella pneumoniae, the MBC entry is “inactive”. In addition, in the assay on Klebsiella pneumoniae, the MIC result is “inactive”.

Turning to `Cc1ccc(OCC(=O)NN2C(c3ccccc3)=C(c3ccccc3)OC23C(=O)Nc2ccccc23)cc1` (stereo not given), the MBC entry in the assay with Bacillus subtilis and in the assay with Klebsiella pneumoniae was “inactive” in each case. Besides, the MIC result in the assay with Bacillus subtilis and in the assay on Klebsiella pneumoniae was “inactive” throughout. In the assay with Enterobacter, this molecule came in with an MBC of 100 µg/mL (≈ 199 µM). Moreover, the MIC came to 50 µg/mL (≈ 99.3 µM) against Enterobacter; 8 µg/mL (≈ 15.9 µM) in the assay on Pyricularia oryzae; 12 µg/mL (≈ 23.8 µM) in assay [1]; 12 µg/mL (≈ 23.8 µM) against Podosphaera fuliginea; 14 µg/mL (≈ 27.8 µM) against Phytophthora infestans.

As to `O=C(NN1C(c2ccccc2)=C(c2ccccc2)OC12C(=O)Nc1ccccc12)c1ccc(Cl)cc1` (stereo not given), the MBC against Bacillus subtilis worked out at 100 µg/mL (≈ 202 µM); in the assay on Enterobacter, 50 µg/mL (≈ 101 µM); in the assay with Klebsiella pneumoniae, 100 µg/mL (≈ 202 µM). For the same molecule, the MIC was found to be 50 µg/mL (≈ 101 µM) against Bacillus subtilis; 30 µg/mL (≈ 60.7 µM) against Enterobacter; 50 µg/mL (≈ 101 µM) in the assay on Klebsiella pneumoniae; 14 µg/mL (≈ 28.3 µM) against Pyricularia oryzae; 12 µg/mL (≈ 24.3 µM) in assay [1]; 12 µg/mL (≈ 24.3 µM) with Podosphaera fuliginea. The same molecule returned an MIC in the assay with Phytophthora infestans of 14 µg/mL (≈ 28.3 µM).

Turning to `Cc1cccc(OCC(=O)NN2C(c3ccccc3)=C(c3ccccc3)OC23C(=O)Nc2ccccc23)c1` (stereo not given), the MBC result in the assay with Bacillus subtilis and in the assay on Klebsiella pneumoniae was “inactive” throughout. The MIC result (with Bacillus subtilis; in the assay on Klebsiella pneumoniae; in assay [1]; with Podosphaera fuliginea) was “inactive” throughout. In addition, the MBC in the assay on Enterobacter was 100 µg/mL (≈ 199 µM). Moreover, the MIC in the assay with Enterobacter amounted to 40 µg/mL (≈ 79.4 µM); against Pyricularia oryzae, 20 µg/mL (≈ 39.7 µM); against Phytophthora infestans it was 12 µg/mL (≈ 23.8 µM).

As for NYSTATIN, the MIC in the assay on Pyricularia oryzae stood at 20 µg/mL; in assay [1], 18 µg/mL; in the assay with Podosphaera fuliginea it was 18 µg/mL; in the assay on Phytophthora infestans it was 18 µg/mL.

As to `Cc1ccccc1OCC(=O)NN1C(c2ccccc2)=C(c2ccccc2)OC12C(=O)Nc1ccccc12` (stereo not given), the MBC entry with Bacillus subtilis and in the assay with Klebsiella pneumoniae was “inactive” in each case. Further, the MIC entry in the assay on Bacillus subtilis and in the assay with Klebsiella pneumoniae was “inactive” throughout. Also, the MBC with Enterobacter is 50 µg/mL (≈ 99.3 µM). Also, the MIC worked out at 30 µg/mL (≈ 59.6 µM) against Enterobacter; 17 µg/mL (≈ 33.8 µM) in the assay with Pyricularia oryzae; 8 µg/mL (≈ 15.9 µM) in assay [1]; 12 µg/mL (≈ 23.8 µM) with Podosphaera fuliginea; 18 µg/mL (≈ 35.7 µM) with Phytophthora infestans.

As to `O=C(O)c1cn(C2CC2)c2cc(N3CCNCC3)c(F)cc2c1=O` [CIPROFLOXACIN], the MBC against Bacillus subtilis was 12.5 µg/mL (≈ 37.7 µM); with Enterobacter, 25 µg/mL (≈ 75.4 µM); against Klebsiella pneumoniae it was 25 µg/mL (≈ 75.4 µM). Further, the MIC amounted to 6.25 µg/mL (≈ 18.9 µM) against Bacillus subtilis, 10.2 µg/mL (≈ 30.9 µM) in the assay with Enterobacter and 6.25 µg/mL (≈ 18.9 µM) against Klebsiella pneumoniae.
